Where two headings read alike, the source gives them in different places.
What was measured:
[1] = amide bond, 13-membered ring
[2] = target: T1, CFTR (Homo sapiens, UniProt P13569); test: Membrane Potential Dye, Enteroid Assay B; type: cell-based
Procedure, shortened: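 Human intestinal enteroid cells exposed to compound 18-24 h at 37 °C, then loaded with methyl oxonol membrane-potential dye plus CaCC blockers. Chloride transport triggered in chloride-free buffer with 10 μM forskolin, 100 μM IBMX, 300 nM Compound III; fluorescence read 15 min, expressed as % of triple-corrector/potentiator combination control.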

[3] = target: T1, CFTR; test: Membrane Potential Dye, Enteroid Assay A; type: cell-based; settings: for EC50: read-out: Ent. A EC50
Procedure, shortened: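 Primary human intestinal enteroid cells exposed to compound for 18–24 hours at 37 °C, then loaded 25 min with methyl oxonol membrane potential dye plus CaCC inhibitors. Chloride transport triggered in chloride-free buffer with 10 μM forskolin, 100 μM IBMX and 300 nM Compound III, fluorescence read 15 min; % Activity relative to a triple-combination corrector/potentiator control.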

[4] = Table 10, read-out: Ent. B EC50

T1 sequence (P13569 with tags, fused parts or gaps DEL508-508): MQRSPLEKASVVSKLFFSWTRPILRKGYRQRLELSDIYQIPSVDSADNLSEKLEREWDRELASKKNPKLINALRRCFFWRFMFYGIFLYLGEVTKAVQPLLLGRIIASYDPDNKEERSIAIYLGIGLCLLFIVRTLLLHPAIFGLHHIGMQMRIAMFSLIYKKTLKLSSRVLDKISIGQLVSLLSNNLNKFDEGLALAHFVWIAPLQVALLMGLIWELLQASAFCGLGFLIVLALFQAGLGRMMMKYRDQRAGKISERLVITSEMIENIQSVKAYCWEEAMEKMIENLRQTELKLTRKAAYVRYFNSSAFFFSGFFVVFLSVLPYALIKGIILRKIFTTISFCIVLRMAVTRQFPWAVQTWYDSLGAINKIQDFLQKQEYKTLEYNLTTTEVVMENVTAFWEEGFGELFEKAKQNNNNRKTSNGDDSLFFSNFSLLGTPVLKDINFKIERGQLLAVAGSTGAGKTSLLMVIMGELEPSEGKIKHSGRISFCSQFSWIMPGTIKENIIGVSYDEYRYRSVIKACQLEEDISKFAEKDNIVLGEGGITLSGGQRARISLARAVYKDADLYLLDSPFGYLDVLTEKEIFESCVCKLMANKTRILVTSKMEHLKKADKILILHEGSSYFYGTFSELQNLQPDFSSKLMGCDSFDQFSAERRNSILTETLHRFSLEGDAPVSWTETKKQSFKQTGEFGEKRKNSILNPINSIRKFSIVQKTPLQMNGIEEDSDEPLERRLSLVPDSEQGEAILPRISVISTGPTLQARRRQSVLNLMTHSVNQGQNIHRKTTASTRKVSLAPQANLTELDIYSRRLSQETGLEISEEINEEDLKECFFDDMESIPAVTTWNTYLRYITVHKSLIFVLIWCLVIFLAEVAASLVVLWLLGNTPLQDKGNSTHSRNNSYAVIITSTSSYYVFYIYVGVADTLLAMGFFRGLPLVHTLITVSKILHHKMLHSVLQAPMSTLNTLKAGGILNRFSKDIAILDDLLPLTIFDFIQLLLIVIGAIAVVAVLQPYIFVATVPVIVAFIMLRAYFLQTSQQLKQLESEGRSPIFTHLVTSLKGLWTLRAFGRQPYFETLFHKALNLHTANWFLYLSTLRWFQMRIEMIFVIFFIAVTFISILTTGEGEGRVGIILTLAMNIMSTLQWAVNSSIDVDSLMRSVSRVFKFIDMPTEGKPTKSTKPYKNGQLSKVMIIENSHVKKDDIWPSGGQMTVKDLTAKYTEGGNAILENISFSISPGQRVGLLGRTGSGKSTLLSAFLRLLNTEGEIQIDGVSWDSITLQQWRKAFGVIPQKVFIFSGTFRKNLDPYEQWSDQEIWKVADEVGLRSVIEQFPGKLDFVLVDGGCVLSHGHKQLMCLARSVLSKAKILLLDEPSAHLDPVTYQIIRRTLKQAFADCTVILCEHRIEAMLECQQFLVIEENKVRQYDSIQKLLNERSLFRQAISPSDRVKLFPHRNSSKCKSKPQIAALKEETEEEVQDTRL

SMILES: Cc1cccc(C)c1-c1cc2nc(n1)NS(=O)(=O)c1cccc(c1)C(=O)N(C1CC(C(=O)OC(C)C)(C(=O)OC(C)C)C1)[C@H](CC(C)(C)C)CO2
- ring closure, isolated yield ([1]; from Cc1cccc(C)c1-c1cc(OC[C@@H](CC(C)(C)C)NC2CC(C(=O)OC(C)C)(C(=O)OC(C)C)C2)nc(NS(=O)(=O)c2cccc(C(=O)O)c2)n1, COMU/DIEA, DMF, 18.6 mM, 25.0 °C, 21.0 h): 20%

SMILES: Cc1cccc(C)c1-c1cc2nc(n1)NS(=O)(=O)c1cccc(c1)C(=O)N(C1CC(OCc3ccccc3)C1)[C@H](CC(C)(C)C)CO2 (stereo partly drawn)
- ring closure, isolated yield ([1]; from Cc1cccc(C)c1-c1cc(OC[C@@H](CC(C)(C)C)NC2CC(OCc3ccccc3)C2)nc(NS(=O)(=O)c2cccc(C(=O)O)c2)n1, COMU/DIEA, DMF, 65.1 mM, 25.0 °C, 16.0 h): 82%

SMILES: Cc1cccc(C)c1-c1cc2nc(n1)NS(=O)(=O)c1cccc(c1)C(=O)N(C1CC(OCc3ccccc3)C1)[C@H](CC(C)C)CO2 (stereo partly drawn)
- ring closure, isolated yield ([1]; from Cc1cccc(C)c1-c1cc(OC[C@@H](CC(C)C)NC2CC(OCc3ccccc3)C2)nc(NS(=O)(=O)c2cccc(C(=O)O)c2)n1, HATU/DIEA, DMF, 77.3 mM, 15.0 h): 85%

SMILES: Cc1cccc(C)c1-c1cc2nc(n1)NS(=O)(=O)c1cccc(c1)C(=O)N(C1CC3(CCN(C(=O)OC(C)(C)C)C3)C1)[C@H](CC(C)C)CO2 (stereo partly drawn)
- ring closure, isolated yield ([1]; from Cc1cccc(C)c1-c1cc(OC[C@@H](CC(C)C)NC2CC3(CCN(C(=O)OC(C)(C)C)C3)C2)nc(NS(=O)(=O)c2cccc(C(=O)O)c2)n1, HATU/DIEA, DMF, 25.0 °C, 3.0 h, 2 steps): 67%

SMILES: Cc1cccc(C)c1-c1cc2nc(n1)NS(=O)(=O)c1cccc(c1)C(=O)N(C1CC3(CCN(C(=O)OC(C)(C)C)CC3)C1)C[C@@H](C)O2
- ring closure, isolated yield ([1]; from Cc1cccc(C)c1-c1cc(O[C@H](C)CNC2CC3(CCN(C(=O)OC(C)(C)C)CC3)C2)nc(NS(=O)(=O)c2cccc(C(=O)O)c2)n1, HATU/DIEA, DMF, 8.8 mM, 6.0 h, 2 steps): 28%

SMILES: Cc1cccc(C)c1-c1cc2nc(n1)NS(=O)(=O)c1cccc(c1)C(=O)N(C1CC3(CCN(C(=O)OC(C)(C)C)CC3)C1)[C@@H](CC(C)C)CO2
- ring closure, isolated yield ([1]; from Cc1cccc(C)c1-c1cc(OC[C@H](CC(C)C)NC2CC3(CCN(C(=O)OC(C)(C)C)CC3)C2)nc(NS(=O)(=O)c2cccc(C(=O)O)c2)n1, HATU/DIEA, DMF/THF, 16.0 h, 2 steps): 18%

SMILES: Cc1cccc(C)c1-c1cc2nc(n1)NS(=O)(=O)c1cccc(c1)C(=O)N(C1CCN(C(=O)OC(C)(C)C)C1)[C@H](CC(C)C)CO2 (stereo partly drawn)
- ring closure, isolated yield ([1]; from Cc1cccc(C)c1-c1cc(OC[C@@H](CC(C)C)NC2CCN(C(=O)OC(C)(C)C)C2)nc(NS(=O)(=O)c2cccc(C(=O)O)c2)n1, COMU/DIPEA, DMF, 10.0 mM, 16.0 h, 2 steps): 28%

SMILES: Cc1cccc(C)c1-c1cc2nc(n1)NS(=O)(=O)c1cccc(c1)C(=O)N(C1CC3(CCN(C(=O)OC(C)(C)C)CC3)C1)[C@H](CC(C)C)CO2 [Compound 13, tert-Butyl 2-[(11R)-6-(2,6-dimethylphenyl)-11-isobutyl-2,2,13-trioxo-9-oxa-2λ^6-thia-3,5,12,19-tetrazatricyclo[12.3.1.14,8]nonadeca-1(18),4(19),5,7,14,16-hexaen-12-yl]-7-azaspiro[3.5]nonane-7-carboxylate]
- ring closure, isolated yield ([1]; from Cc1cccc(C)c1-c1cc(OC[C@@H](CC(C)C)NC2CC3(CCN(C(=O)OC(C)(C)C)CC3)C2)nc(NS(=O)(=O)c2cccc(C(=O)O)c2)n1, HATU/DIEA, DMF, 68.6 mM, 25.0 °C, 13.0 h): 78%
- Ent. B Max Activity (%) [2]: +++ (+++ is >60%)
- EC50 ([2]; read-out: Ent. B EC50): < 1000 nM
- Ent. A Max Activity (%) [3]: +++ (+++ is >60%)
- EC50 [3]: < 1000 nM

SMILES: Cc1cccc(C)c1-c1cc2nc(n1)NS(=O)(=O)c1cccc(c1)C(=O)N(C1CC3(CC3)C1)[C@H](CC(C)(C)O)CO2 [Compound 51, (11R)-6-(2,6-Dimethylphenyl)-11-(2-hydroxy-2-methyl-propyl)-2,2-dioxo-12-spiro[2.3]hexan-5-yl-9-oxa-2λ^6-thia-3,5,12,19-tetrazatricyclo[12.3.1.14,8]nonadeca-1(18),4(19),5,7,14,16-hexaen-13-one]
- ring closure, isolated yield ([1]; from Cc1cccc(C)c1-c1cc(OC[C@@H](CC(C)(C)O)NC2CC3(CC3)C2)nc(NS(=O)(=O)c2cccc(C(=O)O)c2)n1, T3P/Et3N, DMF/EtOAc, 26.4 mM, 4.0 h): 17%
- Ent. B Max Activity (%) ([2]; Table 10): +++ (+++ is >60%)
- EC50 [2, 4]: 1000 to 3000 nM

SMILES: Cc1cccc(C)c1-c1cc2nc(n1)NS(=O)(=O)c1cccc(c1)C(=O)N(C1CC3(CCN(C(=O)OC(C)(C)C)CC3)C1)[C@H](CC1(C(F)(F)F)CC1)CO2 [Compound 127, tert-butyl 2-[(11R)-6-(2,6-dimethylphenyl)-2,2,13-trioxo-11-[[1-(trifluoromethyl)cyclopropyl]methyl]-9-oxa-2λ^6-thia-3,5,12,19-tetrazatricyclo[12.3.1.14,8]nonadeca-1(18),4(19),5,7,14,16-hexaen-12-yl]-7-azaspiro[3.5]nonane-7-carboxylate]
- ring closure, isolated yield ([1]; from Cc1cccc(C)c1-c1cc(OC[C@@H](CC2(C(F)(F)F)CC2)NC2CC3(CCN(C(=O)OC(C)(C)C)CC3)C2)nc(NS(=O)(=O)c2cccc(C(=O)O)c2)n1, HATU/DIEA, DMF, 65.3 mM, 16.0 h): 59%
- Ent. B Max Activity (%) [2]: +++ (+++ is >60%)
- EC50 ([2]; read-out: Ent. B EC50): < 1000 nM

SMILES: Cc1cccc(C)c1-c1cc2nc(n1)NS(=O)(=O)c1cccc(n1)C(=O)N(C1CC3(CC3)C1)[C@H](CC1(C(F)(F)F)CC1)CO2 [Compound 163, (11R)-6-(2,6-Dimethylphenyl)-2,2-dioxo-12-spiro[2.3]hexan-5-yl-11-[[1-(trifluoromethyl)cyclopropyl]methyl]-9-oxa-2λ^6-thia-3,5,12,18,19-pentazatricyclo[12.3.1.14,8]nonadeca-1(18),4(19),5,7,14,16-hexaen-13-one]
- ring closure, isolated yield ([1]; from Cc1cccc(C)c1-c1cc(OC[C@@H](CC2(C(F)(F)F)CC2)NC2CC3(CC3)C2)nc(NS(=O)(=O)c2cccc(C(=O)O)n2)n1, HATU/DIEA, NMP, 99.8 mM, 25.0 °C, 16.0 h): 58%
- Ent. A Max Activity (%) [3]: +++ (+++ is >60%)
- EC50 [3]: < 1000 nM

SMILES: Cc1cccc(C)c1-c1cc2nc(n1)NS(=O)(=O)c1cccc(c1)C(=O)N(C1CC3(CCN(C(=O)OC(C)(C)C)CC3)C1)[C@H](CC(C)(C)C(F)(F)F)CO2 [Compound 187, tert-Butyl 2-[(11R)-6-(2,6-dimethylphenyl)-2,2,13-trioxo-11-(3,3,3-trifluoro-2,2-dimethylpropyl)-9-oxa-2λ^6-thia-3,5,12,19-tetraazatricyclo[12.3.1.14,8]nonadeca-1(17),4(19),5,7,14(18),15-hexaen-12-yl]-7-azaspiro[3.5]nonane-7-carboxylate]
- ring closure, isolated yield ([1]; from Cc1cccc(C)c1-c1cc(OC[C@@H](CC(C)(C)C(F)(F)F)NC2CC3(CCN(C(=O)OC(C)(C)C)CC3)C2)nc(NS(=O)(=O)c2cccc(C(=O)O)c2)n1, HATU/DIEA, DMF, 37.7 mM, 17.0 h): 15%
- Ent. B Max Activity (%) ([2]; Table 9): +++ (+++ is >60%)
- EC50 ([2]; Table 9, read-out: Ent. B EC50): < 1000 nM

SMILES: Cc1cccc(C)c1-c1cc2nc(n1)NS(=O)(=O)c1cccc(c1)C(=O)N(C1CC3(CC3)C1)[C@H](CC1(C(F)(F)F)CC1)CO2 [Compound 198, (11R)-6-(2,6-Dimethylphenyl)-2,2-dioxo-12-spiro[2.3]hexan-5-yl-11-[[1-(trifluoromethyl)cyclopropyl]methyl]-9-oxa-2λ^6-thia-3,5,12,19-tetrazatricyclo[12.3.1.14,8]nonadeca-1(18),4(19),5,7,14,16-hexaen-13-one]
- ring closure, isolated yield ([1]; from Cc1cccc(C)c1-c1cc(OC[C@@H](CC2(C(F)(F)F)CC2)NC2CC3(CC3)C2)nc(NS(=O)(=O)c2cccc(C(=O)O)c2)n1, HATU/DIEA, DMF, 49.1 mM, 21.0 h): 60%
- Ent. B Max Activity (%) [2]: +++ (+++ is >60%)
- EC50 ([2]; read-out: Ent. B EC50): < 1000 nM
- Ent. A Max Activity (%) [3]: +++ (+++ is >60%)
- EC50 [3]: < 1000 nM

SMILES: Cc1cccc(C)c1-c1cc2nc(n1)NS(=O)(=O)c1cccc(c1)C(=O)N(C1CC3(CC(NC(=O)OC(C)(C)C)C3)C1)[C@H](CC(C)(C)C)CO2 (stereo partly drawn) [Compound 199]
- ring closure, isolated yield ([1]; from Cc1cccc(C)c1-c1cc(OC[C@@H](CC(C)(C)C)NC2CC3(CC(NC(=O)OC(C)(C)C)C3)C2)nc(NS(=O)(=O)c2cccc(C(=O)O)c2)n1, HATU/DIEA, DMF, 107.7 mM, 24.0 h): 63%
- ring closure, isolated yield ([1]; from Cc1cccc(C)c1-c1cc(OC[C@@H](CC(C)(C)C)NC2CC3(CC(NC(=O)OC(C)(C)C)C3)C2)nc(NS(=O)(=O)c2cccc(C(=O)O)c2)n1, HATU/DIEA, DMF, 120.7 mM, 36.0 h): 80%
- Ent. B Max Activity (%) ([2]; Table 10): +++ (+++ is >60%)
- EC50 [2, 4]: < 1000 nM
